The results in this text go back to patent US10293001B2, “Compositions and methods for restoring or rejuvenating stem/progenitor cell function” (University of Pittsburgh—Of the Commonwealth System of …, priority 2012, dated 2019).

In test [1] the test system is Ercc1^−/− MEFs. The experiment in a line: Reversal of senescence (SA-β-gal) of Ercc1−/− MEFs. In kind it is cell-based, mouse. To be noted: within 24 hours of treatment.
Test [2] deals with aged WT MDSPCs. The experiment in a line: Myogenic fusion of aged MDSPCs with IKKβ inhibition. Type of test: cell-based, mouse. Further details: dose or concentration left out as unconfirmed. The following applies: under fusion conditions. The source says:
To determine further whether the NF-κB signaling pathway plays a role in driving age-related stem cell dysfunction, whether pharmacologic inhibition of IKK-β would restore the myogenic potential of aged WT MDSPCs was examined. […] MDSPCs were isolated from 30 month old p65^+/− and 24 month old WT mice and compared the myogenic potential of 30 month old p65^+/− MDSPCs in vitro to naturally aged WT MDSPCs. The results confirmed that MDSPCs from p65^+/− aged mice (30 month) were more myogenic than MDSPCs from 24 month old WT mice.

Test [3] relates to Ercc1^−/Δ mice. The experiment in a line: Chronic treatment with mitochondrial radical scavenger in progeroid mice. Type of test: in vivo, mouse.

For `O=C(c1ccc(Nc2nccc(-c3cc4ccccc4s3)n2)cc1)N1CCC(N2CCCC2)CC1` [IKKiVII], the “reversing senescence of Ercc1−/− MEFs (>60% of cells SA-β gal+)” value in test [1] is “could be reversed”.
Regarding `NC(=O)Nc1sc(-c2ccc(F)cc2)cc1C(N)=O` [IKKβ inhibitor IV], the “fusion index of aged MDSPCs” value in test [2] is “significantly increased”.
Regarding `CC(C)C[C@@H](/C=C/[C@H](Cc1ccccc1)C(=O)N1CCC[C@H]1C(=O)N[C@H](C(=O)N[C@@H](CCCNC(=O)OCc1ccccc1)C(=O)NC1CC(C)(C)N([O])C(C)(C)C1)C(C)C)NC(=O)OC(C)(C)C` [XJB-5-131], the “onset of aging-related degenerative changes” value in test [3] is “delay the onset”.
